Drawing on patent publication US9890147B2 (BAYER PHARMA AKTIENGESELLSCHAFT, priority 2012, dated 2018), this text covers IC50 for 24 molecules.

Structures are written as SMILES.

In general, IC50 refers to the point on the concentration scale where inhibition reaches its midpoint. Read a high IC50 as weaker potency in that assay.

The assay addresses T1, BRD4 (BD1) (Homo sapiens, UniProt O60885).
T1 construct: with relatively long constructs also being possible, preferably amino acids 44-168; made in house; host or cells: E. coli
The assay is described as follows: Binding assay BRD4/acetylated peptide H4 (TR-FRET protein-protein interaction assay). The text has this: Binding Assay BRD4/Acetylated Peptide H4 (“PRO”)
To assess the BRD4 binding of the substances described in the present application, their ability to inhibit the interaction between BRD4 (BD1) and acetylated histone H4 in a dose-dependent manner was quantified (Filippakopoulos et al., Cell, 2012, 149: 214-231).
For this purpose, use was made of a time-resolved fluorescence resonance energy transfer (TR-FRET) assay which measured binding between N-terminally His6-tagged BRD4 (BD1) (amino acids 67-152, with relatively long constructs also being possible, preferably amino acids 44-168) and a synthetic acetylated histone H4 (Ac—H4) peptide having the sequence GRGK(Ac)GGK(Ac)GLGK(Ac)GGAK(Ac)RHGSGSK-biotin. The recombinant BRD4 protein-produced according to Filippakopoulos et al., Cell, 2012, 149: 214-231—was expressed in E. coli and purified by (Ni-NTA) affinity and (Sephadex G-75) size exclusion chromatography. The Ac—H4 peptide is commercially available, for example from Biosyntan (Berlin, Germany). In a typical assay, 11 different concentrations of each substance (0.1 nM, 0.33 nM, 1.1 nM, 3.8 nM, 13 nM, 44 nM, 0.15 μM, 0.51 μM, 1.7 μM, 5.9 μM and 20 μM) were measured in duplicate on the same microtitre plate. To this end, 100-fold concentrated solutions in DMSO were prepared by serial dilution (1:3.4) of a 2 mM stock solution in a clear 384-well microtitre platte (Greiner Bio-One, Frickenhausen, Germany) 50 nl of these were transferred into a black test plate (Greiner Bio-One, Frickenhausen, Germany). The test was started by addition of 2 μl of a 2.5-fold concentrated BRD4 solution (final concentration usually 10 nM in the […] of the reaction volume) in aqueous assay buffer [50 mM HEPES pH 7.5. 50 mM sodium chloride (NaCl), 0.25 mM CHAPS and 0.05% serum albumin (BSA)] to the substances in the test plate. This was followed by a 10-minute incubation step at 22° C. to pre-equilibrate putative complexes between BRD4 and the substances.
The mixture was then incubated in the dark for one hour at 22° C. and then for at least 3 hours and at most overnight at 4° C. Formation of BRD4/Ac—H4 complexes was determined by measuring the resonance energy transfer from the streptavidin-Eu cryptate to the anti-6His-XL665 antibody in the reaction. To this end, the fluorescence emission was measured at 620 nm and 665 nm after excitation at 330-350 nm in a TR-FRET measuring device, for example a Rubystar or Pherastar (both from BMG Lab Technologies, Offenburg, Germany) or a Viewlux (Perkin-Elmer). The ratio of the emission at 665 nm and at […] was used as an indicator for the amount of BRD4/Ac—H4 complexes formed.
The data obtained (ratios) were normalized, with 0% inhibition corresponding to the mean of the measured values of a set of controls (usually 32 data points) comprising all reagents. Here, 50 nl of DMSO (100%) were used instead of test substances. An inhibition of 100% corresponded to the mean of the measured values of a set of controls (usually 32 data points) comprising all reagents except for BRD4. The IC50 was determined by regression analysis based on a 4-parameter equation (minimum, maximum, IC50, Hill; Y=Max+(Min−Max)/(1+(X/IC 50)^Hill)).
On the technique in general: TR-FRET usually uses a lanthanide donor and a delayed reading to cut background.

`CNC(=O)N1N=C(c2ccc(Cl)cc2)c2ccc(N3CCOCC3=O)cc2CC1C` (racemic) [Example 232, (±)-1-(4-chlorophenyl)-N,4-dimethyl-7-(3-oxomorpholin-4-yl)-4,5-dihydro-3H-2,3-benzodiazepine-3-carboxamide] came in with an IC50 of 2.84 µM. That is a single-digit micromolar value.

In turn, `CNC(=O)N1N=C(c2ccc(Cl)cc2)c2ccc(N3CCOCC3)cc2CC1C` (racemic) [Example 233, (±)-1-(4-chlorophenyl)-N,4-dimethyl-7-(morpholin-4-yl)-4,5-dihydro-3H-2,3-benzodiazepine-3-carboxamide] yielded an IC50 of 3.45 µM. The IC50 values of the last two molecules are within 1.5-fold of each other.

In turn, `CNC(=O)N1N=C(c2ccc(Cl)cc2)c2ccc(N3CCCC3)cc2CC1C` (racemic) [Example 234, (±)-1-(4-chlorophenyl)-N,4-dimethyl-7-(pyrrolidin-1-yl)-4,5-dihydro-3H-2,3-benzodiazepine-3-carboxamide] showed an IC50 of 3.83 µM.

For `CNC(=O)N1N=C(c2ccc(Cl)cc2)c2ccc(N3CCS(=O)(=O)CC3)cc2CC1C` (racemic) [Example 235, (±)-1-(4-chlorophenyl)-7-(1,1-dioxidothiomorpholin-4-yl)-N,4-dimethyl-4,5-dihydro-3H-2,3-benzodiazepine-3-carboxamide], the IC50 came out at 5.02 µM.

Regarding `CNC(=O)N1N=C(c2ccc(Cl)cc2)c2ccc(N3CCN(C)CC3)cc2CC1C` (racemic) [Example 236, (±)-1-(4-chlorophenyl)-N,4-dimethyl-7-(4-methylpiperazin-1-yl)-4,5-dihydro-3H-2,3-benzodiazepine-3-carboxamide], the IC50 was 2.2 µM. This IC50 lies about 2.3-fold lower than the previous one.

Consider `CNC(=O)N1N=C(c2ccc(N3CCN(C)CC3)cc2)c2ccc(N3CCN(C)CC3)cc2CC1C` (racemic) [Example 237, (±)-N,4-dimethyl-7-(4-methylpiperazin-1-yl)-1-[4-(4-methylpiperazin-1-yl)phenyl]-4,5-dihydro-3H-2,3-benzodiazepine-3-carboxamide], for which the IC50 is 1.07 µM.

`CNC(=O)N1N=C(c2ccc(N3CCN(C)C(=O)C3)cc2)c2ccc(N3CCN(C)C(=O)C3)cc2CC1C` (racemic) [Example 238, (±)-N,4-dimethyl-7-(4-methyl-3-oxopiperazin-1-yl)-1-[4-(4-methyl-3-oxopiperazin-1-yl)phenyl]-4,5-dihydro-3H-2,3-benzodiazepine-3-carboxamide] registered an IC50 of 0.13 µM. Compared with the last molecule, the IC50 is about 8.2-fold lower.

For `CNC(=O)N1N=C(c2ccc(Cl)cc2)c2ccc(-c3ccc(F)cc3)cc2CC1C` (racemic) [Example 239, (±)-1-(4-chlorophenyl)-7-(4-fluorophenyl)-N,4-dimethyl-4,5-dihydro-3H-2,3-benzodiazepine-3-carboxamide], the IC50 is 11.4 µM.

`CNC(=O)N1N=C(c2ccc(Cl)cc2)c2ccc(-c3ccncc3)cc2CC1C` (racemic) [Example 240, (±)-1-(4-chlorophenyl)-N,4-dimethyl-7-(pyridin-4-yl)-4,5-dihydro-3H-2,3-benzodiazepine-3-carboxamide] had a half-maximal inhibitory concentration (IC50) of 4.5 µM.

In turn, `CNC(=O)N1N=C(c2ccc(Cl)cc2)c2ccc(-c3ccc(O)nc3)cc2CC1C` (racemic) [Example 241, (±)-1-(4-chlorophenyl)-7-(6-hydroxypyridin-3-yl)-N,4-dimethyl-4,5-dihydro-3H-2,3-benzodiazepine-3-carboxamide] displayed an IC50 of 2.56 µM.

As to `CNC(=O)N1N=C(c2ccc(Cl)cc2)c2ccc(-c3c(C)noc3C)cc2CC1C` (racemic) [Example 242, (±)-1-(4-chlorophenyl)-7-(3,5-dimethyl-1,2-oxazol-4-yl)-N,4-dimethyl-4,5-dihydro-3H-2,3-benzodiazepine-3-carboxamide], the IC50 was 2.69 µM.

The molecule `CNC(=O)N1N=C(c2ccc(N3CCCS3(=O)=O)cc2)c2cc(OC)c(OC)cc2CC1C` (racemic) [Example 244, (±)-1-[4-(1,1-Dioxido-1,2-thiazolidin-2-yl)phenyl]-7,8-dimethoxy-N,4-dimethyl-4,5-dihydro-3H-2,3-benzodiazepine-3-carboxamide] had an IC50 of 0.03 µM.

In turn, `CNC(=O)N1N=C(c2ccc(-c3c(C)nn(C)c3C)cc2)c2cc(OC(F)(F)F)ccc2CC1C` (racemic) [Example 249, (±)-N,4-dimethyl-8-(trifluoromethoxy)-1-[4-(1,3,5-trimethyl-1H-pyrazol-4-yl)phenyl]-4,5-dihydro-3H-2,3-benzodiazepine-3-carboxamide] showed an IC50 of 0.03 µM. This lies in the double-digit nanomolar range.

Molecule `CNC(=O)N1N=C(c2cc(N3CCN(C)CC3)c(Br)cc2Br)c2cc(OC)c(OC)cc2CC1C` (racemic) [Example 252, (±)-1-[2,4-Dibromo-5-(4-methylpiperazin-1-yl)phenyl]-7,8-dimethoxy-N,4-dimethyl-4,5-dihydro-3H-2,3-benzodiazepine-3-carboxamide] had an IC50 of 5.29 µM.

Molecule `CCC(=O)N1N=C(c2ccc(N3CCN(C)CC3)cc2)c2cc(OC)c(OC)cc2CC1C` (racemic) [Example 255, (±)-7,8-dimethoxy-4-methyl-1-[4-(4-methylpiperazin-1-yl)phenyl]-3-(1-oxopropyl)-4,5-dihydro-3H-2,3-benzodiazepine] yielded an IC50 of 0.24 µM.

Molecule `COc1cc2c(cc1OC)C(c1ccc(N3CCN(C)CC3)cc1)=NN(C(=O)C1CC1)C(C)C2` (racemic) [Example 256, (±)-3-(cyclopropylcarbonyl)-7,8-dimethoxy-4-methyl-1-[4-(4-methylpiperazin-1-yl)phenyl]-4,5-dihydro-3H-2,3-benzodiazepine] yielded an IC50 of 0.61 µM.

On to `COc1cc2c(cc1OC)C(c1ccc(N3CCN(C)CC3)cc1)=NN(C(=O)NC1CC1)C(C)C2` (racemic) [Example 257], for which the IC50 is 2 µM.

Take `CNC(=S)N1N=C(c2ccc(N3CCN(C)CC3)cc2)c2cc(OC)c(OC)cc2CC1C` (racemic) [Example 258, (±)-7,8-Dimethoxy-N,4-dimethyl-1-[4-(4-methylpiperazin-1-yl)phenyl]-4,5-dihydro-3H-2,3-benzodiazepine-3-carbothioamide]: the IC50 was determined as 0.19 µM.

Turning to `COC(=O)N1N=C(c2ccc(N3CCN(C)CC3)cc2)c2cc(OC)c(OC)cc2CC1C` (racemic) [Example 259, Methyl(±)-7,8-dimethoxy-4-methyl-1-[4-(4-methylpiperazin-1-yl)phenyl]-4,5-dihydro-3H-2,3-benzodiazepine-3-carboxylate], the IC50 came out at 0.52 µM. Compared with the last molecule, the IC50 is about 2.7-fold higher.

In the case of `CCOC(=O)N1N=C(c2ccc(N3CCN(C)CC3)cc2)c2cc(OC)c(OC)cc2CC1C` (racemic) [Example 260, Ethyl (±)-7,8-dimethoxy-4-methyl-1-[4-(4-methylpiperazin-1-yl)phenyl]-4,5-dihydro-3H-2,3-benzodiazepine-3-carboxylate], the IC50 was 6.49 µM.

`CCNC(=O)N1N=C(c2ccc(N3CCN(C)CC3)cc2)c2cc(OC)c(OC)cc2CC1C` (racemic) [Example 261, (±)-N-Ethyl-7,8-dimethoxy-4-methyl-1-[4-(4-methylpiperazin-1-yl)phenyl]-4,5-dihydro-3H-2,3-benzodiazepine-3-carboxamide] returned a half-inhibitory concentration (IC50) of 1.49 µM.

For `COc1cc2c(cc1OC)C(c1ccc(N3CCN(C)CC3)cc1)=NN(C(C)=O)[C@@H](C)C2` (single isomer, unassigned) [Example 245.1], the IC50 was 0.39 µM. This IC50 lies about 3.8-fold lower than the previous one.

With `CNC(=O)N1N=C(c2ccc(-c3cccnc3Cl)cc2)c2cc(OC)c(OC)cc2C[C@H]1C` [Example 4.1, (R)-1-[4-(2-chloropyridin-3-yl)phenyl]-7,8-dimethoxy-N,4-dimethyl-4,5-dihydro-3H-2,3-benzodiazepine-3-carboxamide], the IC50 amounted to 0.78 µM.

`CNC(=O)N1N=C(c2ccc(-c3cccnc3Cl)cc2)c2cc(OC)c(OC)cc2C[C@@H]1C` [Example 4.2, (S)-1-[4-(2-chloropyridin-3-yl)phenyl]-7,8-dimethoxy-N,4-dimethyl-4,5-dihydro-3H-2,3-benzodiazepine-3-carboxamide] showed an IC50 of 0.06 µM.
